Results on eleven compounds are retold here after patent US20110112100A1, “Hepatitis C Virus Inhibitors” (priority 2009, published 2011).

What is called CC50 is the concentration that lowers cell viability or growth by half. A high value points to better tolerance by the cells. A word on the IC50: it is the midpoint of a concentration-inhibition curve.

Data set [1] can be described thus: Compound induced cytotoxicity in HCV replicon cell lines (WST-1 reagent). The data set is classed as cell-based. Particulars: human, 1b (con1) HCV replicon cells; WST-1, 48 hours; in 1 experiment. As to the method:
Test compounds were solubilised to 4 mM in 100% DMSO. Dilutions were made to the desired starting concentration in 100% DMSO and then 1 in 3 dilutions made, again in 100% DMSO. 0.5 μl of each sample was added to 384-well assay plates. White Lumitrac (Greiner) plates were used for the 1a and 1b replicon assays and black, clear bottomed (Greiner) plates were used for the WST-1 cytotoxity assay.
1b (con1) replicon cells were resuspended to a concentration of 1.4×10^5 cells/ml by addition of pre-warmed medium (DMEM+10% FCS). 50 μl of this suspension was added to each well of a 384-well assay plate (Black, clear bottomed, Greiner) already containing 0.5 μl of test compound.
All plates were covered with gas permeable seals and incubated at 37° C., 5% CO2 for 48 hours. After 48 hours, 5 μl WST-1 reagent (Roche, 11 644 807 001) was added to each well and the plate returned to the incubator for 3 hours. After this incubation period absorbance was read at 450 nm on an EnVision (Perkin Elmer) plate reader. The half maximal cytotoxic concentration (CC50) values were calculated for each compound by constructing log concentration-response curves.
All of the exemplified compounds have been screened in a cell proliferation assay (WST-1). A majority have […] in at least 2 independent experiments, the exceptions being the compounds of examples 1, 10, 12, 23, 25, 37, 47, 48, 49, 52, 56, 57, 58, 60, 67, 68, 69, 70, 71, 72, 73, 74, 79, 81 and 84 which have CC50 values>2 μM in 1 experiment, and example 20 where the CC50 is reported as >10 nM (in this instance the top concentration tested in the assay was 10 nM).

For the next data set, the system named is 1b (con1) replicon cells. In words: HCV 1b replicon inhibitory activity (luciferase, Britelite Plus). It is filed as cell-based, hepatitis C virus. To be noted: read-out: IC50 value (95% Confidence Intervals) pM Replicon 1B assay. The essentials: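 1b (con1) luciferase replicon cells in DMEM + 10% FCS were exposed to 1-in-3 DMSO compound dilutions for 48 h at 37° C, 5% CO2. Luminescence was read 1-15 min after Britelite Plus addition; EC50 came from log concentration-response curves.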

In another data set the test system is 1a-H77 replicon cells. As to the kind of experiment: HCV 1a replicon inhibitory activity (Renilla luciferase). It is filed as cell-based, hepatitis C virus. Particulars: read-out: IC50 value (95% Confidence Intervals) pM Replicon 1A assay. The essentials: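 Replicon cells in DMEM + 10% FCS incubated 48 hours at 37° C., 5% CO2 with 1-in-3 serial dilutions of compound prepared in DMSO. Replication read as Renilla luciferase luminescence after lysis. EC50 taken from log concentration-response curves.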

Where [2] appears, read: Hepatitis C virus, geometric mean, 95% confidence intervals in parentheses, 48 hours, medium with 10% FCS.
Setting [3] is: geometric mean, 95% confidence intervals in parentheses, 48 hours, medium with 10% FCS.

The structures appear in SMILES notation. Where a name gives a salt, the structure may show the parent alone. Read-outs that look alike come from different tables or passages of the source.

`COC[C@H](NC(=O)OC)C(=O)N1CCC[C@H]1c1ncc(-c2ccc3nc(-c4ccc(-c5c[nH]c([C@@H]6CCCN6C(=O)[C@@H](NC(=O)OC)C(C)C)n5)cc4)cnc3c2)[nH]1` [Example 69, Methyl {(2S)-1-[(2S)-2-{4-[4-(6-{2-[(2S)-1-{(2S)-3-methoxy-2-[(methoxycarbonyl)amino]propanoyl}pyrrolidin-2-yl]-1H-imidazol-5-yl}quinoxalin-2-yl)phenyl]-1H-imidazol-2-yl}pyrrolidin-1-yl]-3-methyl-1-oxobutan-2-yl}carbamate trifluoroacetic acid salt]: in data set [1], the CC50 at 48 h is more than 2000 nM. The IC50 in the data set on 1b (con1) replicon cells (Hepatitis C virus, 48 h) came to 19.6 pM; in the data set with 1a-H77 replicon cells (Hepatitis C virus, 48 h) it was 22.3 pM.
With `CC[C@H](C)[C@H](NC(=O)OC)C(=O)N1CCC[C@H]1c1ncc(-c2ccc3nc(-c4ccc(-c5c[nH]c([C@@H]6CCCN6C(=O)[C@@H](NC(=O)OC)C(C)C)n5)cc4)cnc3c2)[nH]1` [Example 58, Methyl {(2S)-1-[(2S)-2-{4-[4-(6-{2-[(2S)-1-{(2S,3S)-2-[(methoxycarbonyl)amino]-3-methylpentanoyl}pyrrolidin-2-yl]-1H-imidazol-5-yl}quinoxalin-2-yl)phenyl]-1H-imidazol-2-yl}pyrrolidin-1-yl]-3-methyl-1-oxobutan-2-yl}carbamate trifluoroacetic acid salt], the CC50 at 48 h in data set [1] is more than 2000 nM. The half-maximal inhibitory concentration (IC50) with 1b (con1) replicon cells (Hepatitis C virus, 48 h) worked out at 5.07 pM; in the data set with 1a-H77 replicon cells (Hepatitis C virus, 48 h), 6.71 pM.
On the same counts, the results for `COC(=O)N[C@H](C(=O)N1CCC[C@H]1c1nc(-c2ccc(-c3cnc4cc(-c5cnc([C@@H]6CCCN6C(=O)[C@@H](NC(=O)OC)C(C)(C)C)[nH]5)ccc4n3)cc2)c[nH]1)C(C)C` [Example 70, Methyl {(2S)-1-[(2S)-2-{4-[4-(6-{2-[(2S)-1-{(2S)-2-[(methoxycarbonyl)amino]-3,3-dimethylbutanoyl}pyrrolidin-2-yl]-1H-imidazol-5-yl}quinoxalin-2-yl)phenyl]-1H-imidazol-2-yl}pyrrolidin-1-yl]-3-methyl-1-oxobutan-2-yl}carbamate trifluoroacetic acid salt] are more than 2000 nM, 5.17 pM and 9.13 pM.
`COC(=O)N[C@H](C(=O)N1CCC[C@H]1c1ncc(-c2ccc(-c3ccc4cc(-c5cnc([C@@H]6CCCN6C(=O)[C@@H](NC(=O)OC)C(C)C)[nH]5)cnc4c3)nc2)[nH]1)C(C)C` [Example 10, Methyl {(2S)-1-[(2S)-2-{5-[6-(3-{2-[(2S)-1-{(2S)-2-[(methoxycarbonyl)amino]-3-methyl-butanoyl}pyrrolidin-2-yl]-1H-imidazol-5-yl}quinolin-7-yl)pyridin-3-yl]-1H-imidazol-2-yl}pyrrolidin-1-yl]-3-methyl-1-oxobutan-2-yl}carbamate] had a CC50 at 48 h in data set [1] of more than 2000 nM. The IC50 turned out to be 49.4 pM in the data set with 1b (con1) replicon cells (setting [2]) and 1320 pM with 1a-H77 replicon cells (setting [2]).
`COC(=O)N[C@H](C(=O)N1CCC[C@H]1c1nc(-c2ccc3nc(-c4ccc(-c5cnc([C@@H]6CCCN6C(=O)[C@@H](NC(=O)OC)C(C)C)[nH]5)cc4)cc(C#N)c3c2)c[nH]1)C(C)C` [Example 23, Methyl {(2S)-1-[(2S)-2-{5-[4-(4-cyano-6-{2-[(2S)-1-{(2S)-2-[(methoxycarbonyl)amino]-3-methylbutanoyl}pyrrolidin-2-yl]-1H-imidazol-4-yl}quinolin-2-yl)phenyl]-1H-imidazol-2-yl}pyrrolidin-1-yl]-3-methyl-1-oxobutan-2-yl}carbamate]: the CC50 at 48 h in data set [1] was more than 2000 nM. For the same compound, the IC50 in the data set with 1b (con1) replicon cells (setting [2]) came out at 58.4 pM; with 1a-H77 replicon cells (setting [2]), 5450 pM.
In turn, `COC(=O)N[C@H](C(=O)N1CCC[C@H]1c1nc(-c2ccc(-c3cnc4cc(-c5cnc([C@@H]6CCCN6C(=O)[C@H](NC(=O)OC)C(C)(C)C)[nH]5)ccc4n3)cc2)c[nH]1)C(C)C` [Example 73, Methyl {(2S)-1-[(2S)-2-{4-[4-(6-{2-[(2S)-1-{(2R)-2-[(methoxycarbonyl)amino]-3,3-dimethylbutanoyl}pyrrolidin-2-yl]-1H-imidazol-5-yl}quinoxalin-2-yl)phenyl]-1H-imidazol-2-yl}pyrrolidin-1-yl]-3-methyl-1-oxobutan-2-yl}carbamate trifluoroacetic acid salt] returned a cytotoxic concentration (CC50) at 48 h in data set [1] of more than 2000 nM. Moreover, the IC50 was 8.11 pM in the data set with 1b (con1) replicon cells (Hepatitis C virus, 48 h) and 13.3 pM with 1a-H77 replicon cells (Hepatitis C virus, 48 h).
Consider `CC[C@H](NC(=O)OC)C(=O)N1CCC[C@H]1c1ncc(-c2ccc3cc(-c4ccc(-c5cnc([C@@H]6CCCN6C(=O)[C@@H](NC(=O)OC)C(C)C)[nH]5)cc4)ccc3c2)[nH]1` [Example 26, Methyl {(2S)-1-[(2S)-2-{5-[4-(6-{2-[(2S)-1-{(2S)-2-[(methoxycarbonyl)amino]butanoyl}pyrrolidin-2-yl]-1H-imidazol-5-yl}naphthalen-2-yl)phenyl]-1H-imidazol-2-yl}pyrrolidin-1-yl]-3-methyl-1-oxobutan-2-yl}carbamate], for which the IC50 with 1b (con1) replicon cells (setting [2]) came out at 1.92 pM; in the data set with 1a-H77 replicon cells (setting [2]), 64.1 pM.
Take `COC(=O)N[C@H](C(=O)N1CCC[C@H]1c1nc(-c2ccc(-c3cnc4cc(-c5cnc([C@@H]6CCCN6C(=O)[C@@H](COC(C)(C)C)NC(=O)OC)[nH]5)ccc4n3)cc2)c[nH]1)C(C)C` [Example 76, Methyl {(2S)-1-[(2S)-2-{4-[4-(6-{2-[(2S)-1-{(2R)-3-tert-butoxy-2-[(methoxycarbonyl)amino]propanoyl}pyrrolidin-2-yl]-1H-imidazol-5-yl]quinoxalin-2-yl)phenyl]-1H-imidazol-2-yl}pyrrolidin-1-yl]-3-methyl-1-oxobutan-2-yl}carbamate trifluoroacetic acid salt]: the IC50 amounted to 58.8 pM in the data set on 1b (con1) replicon cells (Hepatitis C virus, 48 h) and 157 pM with 1a-H77 replicon cells (Hepatitis C virus, 48 h).
Taken in the same sequence, the figures for `COC(=O)N[C@H](C(=O)N1CCC[C@H]1c1nc(-c2ccc(-c3cnc4cc(-c5cnc([C@@H]6CCCN6C(=O)CNC(=O)CN6C(=O)CCc7ccccc76)[nH]5)ccc4n3)cc2)c[nH]1)C(C)C` [Example 45, Methyl {(2S)-3-methyl-1-oxo-1-[(2S)-2-{4-[4-(6-[2-[(2S)-1-{N-[(2-oxo-3,4-dihydroquinolin-1(2H)-yl)acetyl]glycyl}pyrrolidin-2-yl]-1H-imidazol-5-yl}quinoxalin-2-yl)phenyl]-1H-imidazol-2-yl}pyrrolidin-1-yl]butan-2-yl}carbamate trifluoroacetic acid salt] were 507 pM and 20000 pM.
`COC(=O)N[C@H](C(=O)N1CCC[C@H]1c1nc(-c2ccc(-c3cnc4cc(-c5cnc([C@@H]6CCCN6C(=O)[C@@H](Cc6ccccn6)NC(=O)OC)[nH]5)ccc4n3)cc2)c[nH]1)C(C)C` [Example 83, Methyl {(2S)-1-[(2S)-2-(4-{4-[6-(2-{(2S)-1-[(2R)-2-[(methoxycarbonyl)amino]-3-(pyridin-2-yl)propanoyl]pyrrolidin-2-yl}-1H-imidazol-5-yl)quinoxalin-2-yl]phenyl}-1H-imidazol-2-yl)pyrrolidin-1-yl]-3-methyl-1-oxobutan-2-yl}carbamate trifluoroacetic acid salt]: the IC50 was determined as 53.4 pM in the data set with 1b (con1) replicon cells (Hepatitis C virus, 48 h) and 1030 pM in the data set on 1a-H77 replicon cells (Hepatitis C virus, 48 h).
In the case of `CC[C@@H](NC(C)=O)C(=O)N1CCC[C@H]1c1ncc(-c2ccc3nc(-c4ccc(-c5c[nH]c([C@@H]6CCCN6C(=O)[C@@H](NC(=O)OC)C(C)C)n5)cc4)cnc3c2)[nH]1` [Example 38, Methyl {(2S)-1-[(2S)-2-(4-{4-[6-(2-{(2S)-1-[(2R)-2-(acetylamino)butanoyl]pyrrolidin-2-yl}-1H-imidazol-5-yl)quinoxalin-2-yl]phenyl}-1H-imidazol-2-yl)pyrrolidin-1-yl]-3-methyl-1-oxobutan-2-yl} carbamate trifluoroacetic acid salt], the IC50 was found to be 71.9 pM in the data set on 1b (con1) replicon cells (setting [3]) and 1500 pM with 1a-H77 replicon cells (setting [3]).
